Entries after “also recorded” stand apart in the source; their conditions may differ.
Assays:
[1] = tested on: human Wnt2 promoter in NSCLC cell line A549; test: Wnt2 promoter-luciferase reporter assay; type: cell-based; details: for Wnt2 promoter activity: A549, 30 μM, 18-24 hours
Experimental: (§1) One day before transfection, cells (1×10^5) were plated in 12-well plates with growth medium without antibiotics. When cells reached 80-90% of confluence they were co-transfected using 0.5 μg of each promoter construct in pGL3Basic vector and 0.025 μg pRL-TK Vector (Promega; Madison, Wis.) containing Renilla Luciferase as an internal control for the transformation efficiency. Lipofectamine 2000™ (Invitrogen Life Technologies) was used to mediate transfection for about 6 hours. Then the medium was replaced with fresh medium containing various small molecule compounds at a concentration of 30 μM, and the resulting cells were cultured for an additional 18-24 hours and subjected to luciferase assay. Briefly, cells were lysed in a lysis buffer and Firefly and Renilla Luciferase activities in cells of each well, were measured using Dual-Luciferase Assay System (Promega) and an illuminometer. The measured luciferase activities were normalized to pRL-TK Vector activity and were given relative to the basal activity of empty pGL3-Basic Vector, which was set to unity. The data shown represent mean values (±S.D.). All measurements were performed in triplicate and repeated in at least three independent experiments. The human Wnt-2 promoter-luciferase construct, the human SOCS3 promoter-Luciferase construct and the human Gremlin promoter-luciferase construct were cloned and characterized in the laboratory of Dr. Jablons at the University of California, San Francisco (San Francisco, Calif.; He et al., Biochem Biophy Res Comm, 2003; and unpublished data). The 6GLI-TKO-luciferase construct (containing 6 repeats of consensus GLI DNA binding sequence) was kindly provided by Dr. Matthias Hebrok's laboratory at the University of California, San Francisco (San Francisco, Calif.).
To examine the specificity of the small molecule compounds of the invention, the compounds were tested for regulate the expression of Gli down-stream target genes. […] The human Wnt2 promoter was cloned and found to contain putative Gli-DNA binding sites within its promoter region (data not shown). […]

[2] = tested on: human SOCS3 promoter in NSCLC cell line A549; test: SOCS3 promoter-luciferase reporter assay; type: cell-based; details: A549, 30 μM, 18-24 hours
Experimental: as §1
As a third specificity test for the small molecule compounds of the present invention, the ability of these compounds to regulate the expression of genes that are not down-stream targets of the Gli activation was analyzed. SOCS3, an inhibitor and down-stream target gene of JAK/STAT pathway was chosen for this experiment. Expression of SOCS3 is not under control of Gli and/or Wnt activation. Furthermore, no GLI and TCF binding sites were found in the human SOCS3 promoter cloned in the laboratory of Dr. Jablons (University of California, San Francisco; data not shown). Thus, SOCS3 promoter-luciferase reporter activity was measured after the treatment of the NSCLC cell line A549 with small molecule compounds FN1-5, FN1-7, FN1-8, and FN1-9U.

[3] = tested on: SW480 cells transfected with empty pCDNA3 vector or Gli2 cDNA expression construct; test: GLI2 over-expression rescue experiment; type: cell-based, human; details: 5 days
Experimental: For transient transfection experiments, cells (2×10^5) were plated in six-well plates using growth medium without antibiotics 24 hrs before transfection. Lipofectamine™ 2000 (Invitrogen Life Technologies; Carlsbad, Calif.) was used to mediate transfection using 2.0 μg of cDNA in pCDNA3 vector or 2.0 μg empty pCDNA3 vector as control, according to the manufacturer's protocol. Then the transfected cells were cultured at 37° C. in a humid incubator with 5% CO2 until they were ready for analysis. Gli2 cDNA was kindly provided by Dr. Fritz Aberger at University of Salzburg (Salzburg, Austria). Gli1 and Gli3 cDNA were kindly provided by Dr. Bert Vogelstein and Dr. Kenneth W. Kinzler at the Sidney Kimmel Comprehensive Cancer Center of the Johns Hopkins University (Baltimore, Md.). TAFIII31 cDNA was kindly provided by Dr. Gregory L. Verdine at Harvard University (Cambridge, Mass.).
As described herein, GLI3 seems to activate transcription of Gli1 and Gli2 genes. […] If so, then transfecting a GLI1 and/or GLI2 expression construct into a cell treated with a small molecule compound of the present invention, should lead to at least a partial rescue of the apoptotic effect mediated by the small molecule compound. Thus, to further examine the specificity of the small molecule compound FN1-5, as well as its inhibitory mechanisms, it was tested whether over-expressing GLI2 protein could attenuate the cell killing effect of FN1-5. In this experiment, the colon cancer cell line SW480 was transfected with either empty pCDNA3 vector or with a Gli2 cDNA expression construct. After selection, the transfected cells were re-plated in 6-well plates at same numbers, and then FN1-5 was added into medium at a final concentration of 50 μM.
To further examine the specificity of the small molecule compound FN1-8, as well as its inhibitory mechanisms, we tested whether over-expressing GLI2 protein could attenuate the cell killing effect of FN1-8. The transfection experiment was performed as described above. After 5 days, apoptosis analysis using flow cytometry was performed to quantify the experiment.

SMILES	Wnt2 promoter activity [1]	SOCS3 promoter activity [2]	cell killing, Gli2-transfected versus empty vector cells ([3]; 50 μM)	Wnt2 expression (Wnt2 promoter-luciferase reporter activity assay) ([1]; after FN1-8 treatment, data not shown)	apoptotic cells ([3]; SW480 transfected with empty vector) [%]	apoptotic cells ([3]; SW480 transfected with the Gli2 expression construct) [%]
O=C(NCCCCCO)C1C(c2ccccc2)=NN(c2ccccc2)C1c1ccccc1 (centres unmarked) [FN1-5, N-(5-Hydroxypentyl)-1,3,5-triphenyl-4,5-dihydro-pyrazole-4-carboxyamide]	down-regulate Wnt2 promoter activity dramatically	inactive; also recorded: do not regulate SOCS3 promoter activity	kill less cells transfected with Gli2 than those with empty vector	–	–	–
O=C(NCCc1ccc(O)cc1)C1C(c2ccccc2)=NN(c2ccccc2)C1c1ccccc1 (centres unmarked) [FN1-8, N-(2-(4-Hydroxyphenyl)ethyl)-1,3,5-triphenyl-4,5-dihydro-pyrazole-4-carboxyamide]	down-regulate Wnt2 promoter activity dramatically	inactive; also recorded: do not regulate SOCS3 promoter activity	–	down-regulated	48.1	27.7
